Measured values reported in the supplement of paper PMC10307832.

Experiments:
Experiment in all cases: relative viability (nuclei count vs DMSO), 5 days (fraction); higher = more cells survive
GSK-J4 + Phenformin = compound: CCOC(=O)CCNc1cc(N2CCc3ccccc3CC2)nc(-c2ccccn2)n1 [GSK-J4] + N=C(N)NC(=N)NCCc1ccccc1 [Phenformin] (partner 250 µM)
Outline: (§1)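 Relative viability was taken as the ratio of nuclei in treated wells to nuclei in vehicle wells. Lung cancer cell lines in 1536-well plates received compounds by pin tool one day after seeding, either one drug alone or a fixed anchor-drug dose plus five library-drug doses (not always all listed) in √10 steps. Nuclei were counted on 4× images after 5 days of treatment, and values are medians of duplicate plates.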

GSK-J4 + Alpelisib = compound: CCOC(=O)CCNc1cc(N2CCc3ccccc3CC2)nc(-c2ccccn2)n1 [GSK-J4] + Cc1nc(NC(=O)N2CCC[C@H]2C(N)=O)sc1-c1ccnc(C(C)(C)C(F)(F)F)c1 [Alpelisib] (partner 2 µM)
Outline: as §1

GSK-J4 + Trametinib = compound: CCOC(=O)CCNc1cc(N2CCc3ccccc3CC2)nc(-c2ccccn2)n1 [GSK-J4] + CC(=O)Nc1cccc(-n2c(=O)n(C3CC3)c(=O)c3c(Nc4ccc(I)cc4F)n(C)c(=O)c(C)c32)c1 [Trametinib] (partner 0.02 µM)
Outline: as §1

AZ3146 + Vorinostat = compound: CN1CCC(CC1)OC2=CC(=C(C=C2)NC3=NC=C4C(=N3)N(C(=O)N4C)C5CCCC5)OC [AZ3146] + O=C(CCCCCCC(=O)Nc1ccccc1)NO [Vorinostat] (partner 1 µM)
Outline: as §1

Row | Cell Line | relative viability (GSK-J4 + Phenformin; first compound 0.5 µM) | relative viability (GSK-J4 + Phenformin; first compound 1.581 µM) | relative viability (GSK-J4 + Phenformin; first compound 5 µM) | relative viability (GSK-J4 + Phenformin; first compound 15.81 µM) | relative viability (GSK-J4 + Phenformin; first compound 50 µM) | relative viability (GSK-J4 + Alpelisib; first compound 0.5 µM) | relative viability (GSK-J4 + Alpelisib; first compound 1.581 µM) | relative viability (GSK-J4 + Alpelisib; first compound 5 µM) | relative viability (GSK-J4 + Alpelisib; first compound 15.81 µM) | relative viability (GSK-J4 + Alpelisib; first compound 50 µM) | relative viability (GSK-J4 + Trametinib; first compound 0.5 µM) | relative viability (GSK-J4 + Trametinib; first compound 1.581 µM) | relative viability (GSK-J4 + Trametinib; first compound 5 µM) | relative viability (GSK-J4 + Trametinib; first compound 15.81 µM) | relative viability (GSK-J4 + Trametinib; first compound 50 µM) | relative viability (AZ3146 + Vorinostat; first compound 0.08 µM) | relative viability (AZ3146 + Vorinostat; first compound 0.253 µM) | relative viability (AZ3146 + Vorinostat; first compound 0.8 µM) | relative viability (AZ3146 + Vorinostat; first compound 2.53 µM) | relative viability (AZ3146 + Vorinostat; first compound 8 µM)
1 | NCI-H1734 | 0.425 | 0.365 | 0.328 | 0.332 | 0.31 | 0.679 | 0.597 | 0.568 | 0.671 | 0.591 | 0.633 | 0.524 | 0.627 | 0.58 | 0.545 | 0.646 | 0.886 | 0.782 | 0.795 | 0.584
2 | NCI-H1755 | 0.606 | 0.5 | 0.367 | 0.49 | 0.56 | 0.897 | 0.763 | 1.02 | 0.915 | 0.852 | 0.809 | 0.72 | 0.754 | 0.649 | 0.65 | 0.71 | 0.804 | 0.599 | 0.789 | 0.765
3 | NCI-H1793 | 0.446 | 0.29 | 0.281 | 0.294 | 0.228 | 0.79 | 0.737 | 0.715 | 0.602 | 0.275 | 0.432 | 0.375 | 0.336 | 0.28 | 0.228 | 0.616 | 0.682 | 0.613 | 0.942 | 0.573
4 | NCI-H1915 | 0.36 | 0.327 | – | 0.369 | 0.388 | 0.972 | 0.97 | 1.04 | 0.99 | 1.01 | 0.299 | 0.302 | – | 0.28 | 0.293 | 0.371 | 0.513 | 0.535 | 0.559 | 0.498
5 | NCI-H1944 | 0.2 | 0.193 | 0.124 | 0.155 | 0.174 | 0.833 | 0.709 | 0.964 | 0.897 | 0.822 | 0.4 | 0.394 | – | 0.307 | 0.357 | 0.425 | 0.579 | 0.606 | 0.616 | 0.543
6 | NCI-H1975 | 0.415 | 0.417 | 0.288 | 0.36 | 0.428 | 0.615 | 0.613 | – | 0.678 | 0.837 | 0.356 | 0.262 | 0.296 | 0.329 | 0.264 | 0.67 | 0.736 | 0.735 | 0.697 | 0.327
7 | NCI-H1993 | 0.476 | 0.545 | 0.555 | 0.548 | 0.456 | 0.657 | 0.643 | 0.702 | 0.667 | 0.621 | 0.514 | 0.504 | 0.497 | 0.544 | 0.532 | 0.724 | 1.03 | 1.06 | 1.05 | 0.559
8 | NCI-H2009 | 0.456 | 0.419 | 0.354 | 0.341 | 0.222 | 1.1 | 1.16 | 1.08 | 1.1 | 0.966 | 0.262 | 0.266 | 0.195 | 0.252 | 0.199 | 0.635 | 0.673 | 0.743 | 0.704 | 0.543
9 | NCI-H2023 | 0.441 | – | 0.395 | 0.35 | 0.342 | 0.604 | 0.471 | 0.75 | 0.582 | 0.583 | 0.559 | 0.591 | 0.59 | 0.475 | 0.431 | 0.422 | 0.991 | 0.407 | 0.471 | 0.193
10 | NCI-H2085 | 0.724 | 0.674 | 0.671 | 0.508 | 0.582 | 0.894 | 0.863 | 0.888 | 0.898 | 0.789 | 0.482 | 0.663 | 0.586 | 0.517 | 0.57 | 0.75 | 0.786 | 0.779 | 0.789 | 0.701
11 | NCI-H2087 | 0.466 | – | 0.541 | 0.452 | 0.456 | 0.988 | 1.17 | – | 0.933 | 0.745 | 0.189 | 0.171 | 0.257 | 0.169 | 0.222 | 0.649 | 0.505 | 0.838 | 0.668 | 0.367
12 | NCI-H2126 | 0.537 | 0.505 | 0.55 | 0.485 | 0.456 | 0.763 | 0.706 | 0.787 | 0.741 | 0.684 | 0.567 | 0.575 | 0.566 | 0.503 | 0.503 | 0.504 | 0.743 | 0.709 | 0.835 | 0.66
13 | NCI-H2170 | 0.38 | 0.352 | 0.341 | 0.387 | 0.275 | 0.787 | 0.803 | 0.878 | 0.781 | 0.713 | 0.852 | 0.882 | 0.958 | 0.872 | 0.829 | 0.815 | 0.763 | 0.854 | 0.867 | 0.751
14 | NCI-H2228 | 0.331 | 0.205 | 0.42 | 0.244 | 0.355 | 0.702 | 0.653 | 0.933 | 0.566 | 0.575 | 0.523 | 0.526 | 0.48 | 0.415 | 0.334 | 0.589 | 0.695 | 0.874 | 0.956 | 0.674
15 | NCI-H2347 | 0.324 | 0.384 | 0.507 | – | 0.499 | 1.02 | 0.659 | 0.933 | 1.05 | 0.722 | 0.25 | 0.273 | 0.275 | 0.32 | 0.285 | 0.523 | 0.562 | 0.574 | 0.717 | 0.596
16 | NCI-H2405 | 0.442 | 0.386 | – | 0.335 | 0.366 | 0.814 | 0.619 | – | 0.897 | 0.935 | 0.586 | 0.63 | – | 0.48 | 0.749 | 0.799 | 0.969 | 1.04 | 1.14 | 0.927
17 | NCI-H3122 | 0.37 | – | 0.305 | 0.289 | 0.264 | 0.78 | 0.634 | 0.95 | 0.716 | 0.674 | 0.223 | 0.266 | 0.222 | 0.273 | 0.193 | 0.92 | 0.969 | 1.08 | 1.07 | 0.932
